Results on five compounds are retold here after patent publication US20080227798A1, “POLYMORPHS OF SUCCINATE SALT OF 2-[6-(3-AMINO-PIPERIDIN-1-YL)-3-METHYL-2,4-DIOXO-3,4-DIHYDRO-2H-PYRIMIDIN-1-YLMETHY]-4-FLUOR-BENZONITRILE AND METHODS OF USE THEREFOR” (priority 2006, published 2008).

The structures appear in SMILES notation. “Also recorded” adds a separate entry of the source.

What all share (assay type): physicochemical
Data set [1] is described as follows: Slurry interconversion studies. The source says: An excess amount of Compound I was slurried in test solvent on a rotating wheel for approximately 5 or 7 days. The solids were typically collected by vacuum filtration, air dried in the hood, and analyzed by XRPD for form identification.
Samples of mixture of Form A and Form B of Compound I were slurried in water and THF:water (9:1), for up to 13 days.

Data set [2] can be described thus: Moisture sorption/desorption analysis. To be noted: for weight lost on desorption: 95-5% RH. Here is the method: Moisture sorption/desorption data were collected on a VTI SGA-100 Vapor Sorption Analyzer. Sorption and desorption data were collected over a range of 5% to 95% relative humidity (RH) at 10% RH intervals under a nitrogen purge. Samples were not dried prior to analysis. Equilibrium criteria used for analysis were less than 0.0100% weight change in 5 minutes, with a maximum equilibration time of 3 hours if the weight criterion was not met. Data were not corrected for the initial moisture content of the samples. NaCl and PVP were used as calibration standards. Moisture sorption and desorption study was conducted on a sample of Form A+B. The sample was prepared by crashed cooling crystallization (Example 3, section A.6) of the polymorphic forms from a ethanol:water (95:5) solution of Compound I. The moisture sorption and desorption study was conducted according to the procedures outlined in Example 3, section B.10. The data collected is plotted in FIG. 13 and summarized in Table L. Moisture sorption and desorption study was conducted on a sample of Form E. The sample was prepared by solvent/antisolvent crystallization (Example 3, section A.7) by the addition of acetonitrile to Compound I in water. The moisture sorption and desorption study was conducted according to the procedures outlined in Example 3, section B.10. The data collected is plotted in FIG. 23 and summarized in Table M. Moisture sorption and desorption study was conducted on a sample of Amorphous Form. The sample was prepared by lyophilolization of a solution of Compound I in water (Example 3, section A.9). The moisture sorption and desorption study was conducted according to the procedures outlined in Example 3, section B.10.

The nature of data set [3]: Thermogravimetric analysis (TGA). Here is the method: Thermogravimetric (TG) analyses were performed using a TA Instruments 2950 thermogravimetric analyzer. Each sample was placed in an aluminum sample pan and inserted into the TG furnace. The furnace was first equilibrated at 25° C., then heated under nitrogen at a rate of 10° C./min, up to a final temperature of 350° C. Nickel and Alumel™ were used as the calibration standards.

A short description of data set [4]: Relative humidity stressing experiments. The source says:
Samples of Compound I were placed uncovered in approximately 58%, 88%, and 97% relative humidity jars. The samples were stored in the jars for approximately 8 days. The solids were collected and analyzed by XRPD for form identification. […] An aliquot of a mixture of Form A+B was stressed at 88% relative humidity for 23 days. Amorphous Form was stressed at 58% and 88% relative humidity for 23 days.

The nature of a further data set: Dehydration experiment. From the text: Hydrated samples of Compound I were dehydrated at ambient conditions (2 days) and in an ambient temperature vacuum oven (1 day). The solids were collected and analyzed by XRPD for form identification.
Aliquots of Form A+B of Compound I were stored at ambient condition for two days and in an ambient temperature vacuum over for one day. The solids were collected and analyzed by XRPD and confirmed to be Form A.

A short description of data set [5]: Thermogravimetric-infrared (TG-IR) analysis. From the text:
Thermogravimetric infrared (TG-IR) analyses were acquired on a TA Instruments thermogravimetric (TG) analyzer model 2050 interfaced to a Magna 560® Fourier transform infrared (FT-IR) spectrophotometer (Thermo Nicolet) equipped with an Ever-Glo mid/far IR source, a potassium bromide (KBr) beamsplitter, and a deuterated triglycine sulfate (DTGS) detector. The TG instrument was operated under a flow of helium at 90 and 10 cc/min for the purge and balance, respectively. Each sample was placed in a platinum sample pan, inserted into the TG furnace, accurately weighed by the instrument, and the furnace was heated from ambient temperature to 250° C. at a rate of 20° C./min. The TG instrument was started first, immediately followed by the FT-IR instrument. Each IR spectrum represents 32 co-added scans collected at a spectral resolution of 4 cm^−1. A background scan was collected before the beginning of the experiment. Wavelength calibration was performed using polystyrene. The TG calibration standards were nickel and Alumel™. Volatiles were identified from a search of the High Resolution Nicolet TGA Vapor Phase spectral library.

Take `Cn1c(=O)cc(N2CCC[C@@H](N)C2)n(Cc2cc(F)ccc2C#N)c1=O.O=C(O)CCC(=O)O` [A + B]: in data set [1] (THF:H2O 9:1, 13 days (approximate)), the “Final Form after slurry (XRPD)” value was “A + B”.
Take `Cn1c(=O)cc(N2CCC[C@@H](N)C2)n(Cc2ccccc2C#N)c1=O.O=C(O)CCC(=O)O` [Amorphous Form]: the “weight lost on desorption” value in data set [2] is on record as “Approximately 4.7%”. The Weight % chg in data set [2] (Samp RH 4.97%, 25.05° C., elapsed 1278.0 min (desorption)) is recorded as −1.269%; in data set [2] (Samp RH 5.09%, 25.06° C., elapsed 84.0 min), −0.975%; in data set [2] (Samp RH 14.98%, 25.06° C., elapsed 113.6 min (sorption)), −0.589%; in data set [2] (Samp RH 15.06%, 25.04° C., elapsed 1243.6 min (desorption)) it was −1.148%; in data set [2] (Samp RH 24.92%, 25.05° C., elapsed 158.4 min (sorption)) it was −0.166%; in data set [2] (Samp RH 25.13%, 25.05° C., elapsed 1210.7 min (desorption)), −1.026%. The Weight % chg is 0.841% in data set [2] (Samp RH 34.90%, 25.04° C., elapsed 277.5 min (sorption)); −0.912% in data set [2] (Samp RH 35.06%, 25.05° C., elapsed 1179.2 min (desorption)); 0.000% in data set [2] (Samp RH 41.98%, 25.04° C., elapsed 0.1 min (start)); 2.393% in data set [2] (Samp RH 45.05%, 25.03° C., elapsed 392.7 min (sorption)); −0.776% in data set [2] (Samp RH 45.07%, 25.05° C., elapsed 1144.4 min (desorption)); 4.540% in data set [2] (Samp RH 54.99%, 25.02° C., elapsed 470.8 min (sorption)). Further, the Weight % chg in data set [2] (Samp RH 55.11%, 25.04° C., elapsed 1092.3 min (desorption)) is −0.545%; in data set [2] (Samp RH 64.90%, 25.02° C., elapsed 508.0 min (sorption)), 6.988%; in data set [2] (Samp RH 65.07%, 25.03° C., elapsed 1039.8 min (desorption)), −0.280%; in data set [2] (Samp RH 74.82%, 25.02° C., elapsed 654.6 min (sorption)), 0.437%; in data set [2] (Samp RH 74.92%, 25.02° C., elapsed 957.5 min (desorption)), 0.176%; in data set [2] (Samp RH 84.78%, 25.03° C., elapsed 703.8 min (sorption)), 0.922%. The Weight % chg in data set [2] (Samp RH 85.31%, 25.02° C., elapsed 877.9 min (desorption)) came to 1.010%; in data set [2] (Samp RH 94.59%, 25.02° C., elapsed 806.9 min (sorption)), 3.400%. Further, in data set [2] (after moisture sorption/desorption), the “Post MB XRPD (form after moisture sorption/desorption analysis)” value was “Crystalline, Form A (FIG. 31)”. For the same compound, the “weight lost on sorption” value in data set [2] (at 75% relative humidity) is on record as “Approximately 7%”. Also, the “weight loss on equilibration at 5% relative humidity” value in data set [2] (equilibration at 5% RH) is 1.0%. The “weight lost on equilibration” value in data set [2] (equilibration at 5% RH) was 1.0% weight lost on equilibration at 5% RH,. The weight gain in data set [2] (from 5-95% RH) was found to be 4.4%. Besides, in data set [2] (from 75% to 95% relative humidity), the “weight gain on sorption” value turned out to be 4.4%. Also, the weight lost in data set [2] (from 95-5% RH) stood at 4.7%. For the same compound, in data set [2] (post moisture sorption/desorption), the “form by XRPD of the material remaining after the moisture sorption/desorption analysis” value was “Form A; also recorded: low crystallinity A”. The “weight gained on sorption” value in data set [2] (up to 65% relative humidity) is “Approximately 8%”. Moreover, the TGA weight loss was 1.8% in data set [3] (from 25° C. to 95° C.) and 1.8% weight loss from 25 °C to 95 °C in data set [3] (from 25° C. to 95° C., lyophilized from Compound I in water).
In the case of `Cn1c(=O)cc(N2CCC[C@@H](N)C2)n(Cc2cc(F)ccc2C#N)c1=O.O=C(O)CCC(=O)O` [Form A+B], in data set [2], the “reversible weight change on sorption/desorption” value came out at 1.2%. For the same compound, the “weight gain on sorption” value in data set [2] (5-95% RH) was 1.2% weight gain from 5-95% RH. In addition, the “weight lost on desorption” value in data set [2] is 1.2% weight lost from 95-5% RH. In addition, the Weight % chg is reported as −0.658% in data set [2] (Samp RH 4.83%, 25.10° C., elapsed 445.9 min (desorption)); −0.665% in data set [2] (Samp RH 5.14%, 25.05° C., elapsed 91.5 min); −0.184% in data set [2] (Samp RH 14.88%, 25.04° C., elapsed 137.8 min (sorption)); 0.020% in data set [2] (Samp RH 14.96%, 25.09° C., elapsed 359.7 min (desorption)); 0.004% in data set [2] (Samp RH 25.03%, 25.07° C., elapsed 165.5 min (sorption)); 0.149% in data set [2] (Samp RH 25.11%, 25.09° C., elapsed 338.5 min (desorption)). The Weight % chg in data set [2] (Samp RH 34.82%, 25.06° C., elapsed 179.7 min (sorption)) is given as 0.098%; in data set [2] (Samp RH 34.92%, 25.06° C., elapsed 319.3 min (desorption)) it was 0.237%; in data set [2] (Samp RH 44.88%, 25.06° C., elapsed 196.2 min (sorption)), 0.208%; in data set [2] (Samp RH 45.07%, 25.07° C., elapsed 307.3 min (desorption)), 0.299%; in data set [2] (Samp RH 54.95%, 25.06° C., elapsed 208.7 min (sorption)) it was 0.284%; in data set [2] (Samp RH 55.02%, 25.07° C., elapsed 296.5 min (desorption)), 0.353%. Besides, the Weight % chg in data set [2] (Samp RH 62.77%, 25.03° C., elapsed 0.1 min (start)) was determined as 0.000%; in data set [2] (Samp RH 64.94%, 25.04° C., elapsed 285.2 min (desorption)), 0.406%; in data set [2] (Samp RH 65.00%, 25.08° C., elapsed 219.7 min (sorption)), 0.347%; in data set [2] (Samp RH 75.01%, 25.05° C., elapsed 231.9 min (sorption)), 0.406%; in data set [2] (Samp RH 75.35%, 25.08° C., elapsed 274.2 min (desorption)), 0.456%; in data set [2] (Samp RH 84.92%, 25.09° C., elapsed 243.8 min (sorption)), 0.466%. The Weight % chg in data set [2] (Samp RH 85.01%, 25.08° C., elapsed 265.2 min (desorption)) amounted to 0.510%; in data set [2] (Samp RH 94.67%, 25.08° C., elapsed 256.6 min (sorption)) it was 0.563%. Also, the “form by XRPD after relative humidity stressing” value was “Form A” in data set [4] (58% relative humidity, 23 days) and “Form A” in data set [4] (88% relative humidity, 23 days). The “form by XRPD after dehydration” value in the data set “Dehydration experiment” (ambient conditions, two days) was “converted to Form A”; in “Dehydration experiment” (vacuum oven at ambient temperature, one day) it was “converted to Form A”. Besides, in data set [1] (slurried in water and THF:water (9:1), up to 13 days), the “form by XRPD after slurry” value is given as “either Form A or Form A+B”. Further, in data set [1] (slurried in water, water removed by evaporation), the form after slurry result is recorded as “converted to Form A”. In addition, the “water content consistent with weight loss” value in data set [5] (from 2.4% weight loss) was 0.5 to 1.0 moles of water.
Consider `Cn1c(=O)cc(N2CCC[C@@H](N)C2)n(Cc2ccccc2C#N)c1=O.O=C(O)CCC(=O)O` [Form A], for which the “stability at ambient conditions” value in data set [4] (ambient conditions, conclusion from characterization data) is listed as “stable”. Further, the “form by XRPD after relative humidity stressing” value is recorded as “Form A” in data set [4] (approximately 50% relative humidity, 29 days); “did not exhibit form changes” in data set [4] (approximately 58% relative humidity, 29 days); “did not exhibit form changes; also recorded: Form A” in data set [4] (approximately 97% relative humidity, 29 days). The TGA weight loss result in data set [3] (heated from 25° C. to 165° C.) is given as “insignificant weight loss”.
On to `Cn1c(=O)cc(N2CCC[C@@H](N)C2)n(Cc2cc(F)ccc2C#N)c1=O.O=C(O)CCC(=O)O` [Form D], for which the “TGA total weight loss” value in data set [3] (equilibration plus 25° C. to 85° C.) is given as “approximately 30%”. Further, the “water content consistent with total weight loss” value in data set [3] (from about 30% total weight loss) is recorded as “approximately 11 moles of water”. In addition, the TG-IR weight loss in data set [5] (heated from 20° C. to 100° C., evaporation of water) is recorded as 24.0% weight loss when heated from.
